Test results as given in US4540428A (priority 1983, dated 1985).

Key:
soil urease [1] = experiment: Urea hydrolyzed as a function of time in soil at 35° C. (procedure of Example VI, FIG. 1); assay type: biochemical; settings: 10 micrograms of urease inhibitor per gram of soil; for urease inhibiting activity at 35° C. (in words): soil at 35° C. (95° F.), period of 12 days, sampled every two days
Method: The drawing is a graph of urea hydrolyzed as a function of time at 35° C. using 10 micrograms of urease inhibitor per gram of soil.
Certain compounds were evaluated to determine their effectiveness as urease inhibitors. The inhibition tests were run in a New York State soil (Cazenovia sandy loam, pH 7.2). Evaluations (run in triplicate) consisted of applying 800 micrograms of test compound in 5 mL of water and 42.8 mg urea in 1 mL of water to 20 g of air-dry soil in a glass bottle. The bottle was capped with perforated aluminum foil and incubated at 25° C. for 3 days prior to extraction with 100 mL of 2M KCl solution containing 0.5 mg of phenylmercuric acetate. The extracts were then analyzed for remaining urea using an autoanalyzer. Percent inhibition was calculated as [formula] where A is urea recovered from unincubated sample (urea added to soil and immediately extracted); B is urea recovered from inhibited sample; and C is urea recovered from the control (uninhibited sample).
Employing the procedure of Example VI, the urease inhibiting activity at 35° C. of the prior art urease inhibitor, phenyl phosphorodiamidate, and N-(2-chloroethyl)phosphoric triamide were evaluated. In the evaluation, soil samples were taken every two days and analyzed for urea content.

soil urease [2] = assay type: biochemical; settings: for % Inhibition 40 microgram per gram soil: pH 7.2
urease = settings: stated as well known; cited from earlier work

NP(N)(=O)NCCCl [Experiment 1, N-2-Chloroethyl Phosphoric Triamide]
urease inhibiting activity at 35° C. (in words) (soil urease [1]): excellent inhibitor

NP(N)(=O)NCCCl [Experiment 1]
% Inhibition 1 microgram per gram soil (soil urease [2]): 77% | % Inhibition 40 microgram per gram soil (soil urease [2]): 100%

NP(N)(=O)NCCCBr [Experiment 3]
% Inhibition 1 microgram per gram soil (soil urease [2]): 83% | % Inhibition 40 microgram per gram soil (soil urease [2]): 99%

NP(N)(=O)Oc1ccccc1 [phenyl phosphorodiamidate]
urease inhibiting activity at 35° C. (in words) (soil urease [1]): much less effective | time to essentially complete urea hydrolysis (soil urease [1]; soil at 35° C.): essentially complete urea hydrolysis after only six days | inhibitory effect on urease at 25° C. (in words) (urease): excellent inhibitory effect
